US12648903B2, “Skin care composition” (BEIERSDORF AG, priority 2019, dated 2026)

Columns and labels:
C. acnes strain K8 = experiment: Minimum inhibitory concentration (MIC) of cosmetic excipients, strain K8; format: cell-based, Cutibacterium acnes; conditions: % w/vol, incubated anaerobically 3 days at 37° C., growth scored visually
Method: (§1) In microbiology, the MIC is the lowest concentration of a chemical which prevents visible growth of bacterium. The resulted MIC value depends both on the microorganism and the test compound. The MIC is determined by preparing concentrations series of the test compound in vitro, incubating the solutions with the separate batches of cultured bacteria, and measuring the results using agar dilution or broth microdilution. For the experiments with C. acnes strains C3 and K8, media comprising yeast extract soy peptone and dextrose were used. The MIC is determined by turbidity.
(§2) A total of 125 cosmetic excipients were tested for their compatibility with C. acnes strains C3 and K8. Hydrophilic compounds were tested in a 96-well plate liquid broth format, poorly soluble compounds were pre-dissolved in DMSO before dilution in liquid broth and hydrophobic or solid compounds were tested in an agar well diffusion test assay. The different dilutions of the test excipients in media were prepared in Falcon tubes and then distributed in a deep well plate using a multistepper. Each well received 1.2 ml and was subsequently inoculated with 120 μl of C. acnes bacteria suspension (strain C3 and K8). From the deep well plate 200 μl were transferred in each well of a clear 96 well replicate plate. The leftover was discarded. The plates were then incubated anaerobically for 3 days at 37° C. Following incubation, the test plates were visually examined and wells were scored for growth or complete growth inhibition to define the minimum inhibitory concentration.
(§3) These excipients are listed in the below table with their compatibility values for C. acnes strains C3 and K8. The compatibility values represent the MIC value of the listed ingredients with the tested C. acnes strains. At this concentration [% w/vol] the tested compound starts interfering with the growth of the tested strains. The compounds can be used in formulations at concentrations below this concentration.

C. acnes strain C3 = experiment: Minimum inhibitory concentration (MIC) of cosmetic excipients, strain C3; format: cell-based, Cutibacterium acnes; conditions: % w/vol, incubated anaerobically 3 days at 37° C., growth scored visually
Method: as §1, §2, §3

Row | Compound | COMPATABILITY VALUE K8 [%] (MIC value) (C. acnes strain K8) | COMPATABILITY VALUE C3 [%] (MIC value) (C. acnes strain C3)
1 | CCCCCCC(O)CO (centres unmarked) [caprylyl glycol] | 0.18 | 0.18
2 | CC(CO)CO [methylpropanediol] | 4.00 | 4.00
3 | ethylhexyl cocoate | 10.00 | 10.00
4 | tocopherol | 1.50 | 1.50
